Patent publication US11618747B2, “LXR modulators with bicyclic core moiety” (OrsoBio, Inc., priority 2018, dated 2023)
pEC50: −log10 of the molar value.

How the values were obtained:
[1] = target: T1, LXRβ ligand-binding domain (Homo sapiens, UniProt P55055, DUP175-175); assay: TR-FRETβ activity assay (NCoA3 coactivator peptide recruitment); type: biochemical; settings: TR-FRET, 1 μM 24(S)-25-epoxycholesterol prestimulation; read-out: FRETβ (EC50 range)
T1 construct: amino acids 156-461; NP009052; made in house; host or cells: E. coli
T1 sequence (P55055 with tags, fused parts or gaps DUP175-175 limits assumed): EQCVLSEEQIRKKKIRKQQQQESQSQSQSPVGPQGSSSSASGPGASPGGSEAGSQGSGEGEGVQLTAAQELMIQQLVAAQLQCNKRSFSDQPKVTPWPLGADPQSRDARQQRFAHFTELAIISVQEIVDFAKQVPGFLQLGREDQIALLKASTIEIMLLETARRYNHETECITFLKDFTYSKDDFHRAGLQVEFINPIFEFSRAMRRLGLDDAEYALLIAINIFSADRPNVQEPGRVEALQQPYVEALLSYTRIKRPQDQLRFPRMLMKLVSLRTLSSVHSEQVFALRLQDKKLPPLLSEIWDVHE
Method in brief: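 GST-tagged human LXRβ LBD (aa 156-461, E. coli) at 76 nM with 400 nM biotinylated NCoA3 peptide in Tris/HCl pH 6.8, 240 mM KCl, BSA, 0.002% Triton-X-100, plus 1 μM 24(S)-25-epoxycholesterol as prestimulating agonist. Compounds at 50 μM down to 0.002 μM, 1 h at 4 °C. Coactivator recruitment by TR-FRET (Tb cryptate/XL665, 615/665 nm), triplicates.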

[2] = target: T2, ligand-binding domain (LBD) of LXRβ (Homo sapiens, UniProt P55055, DUP175-175); assay: LXR Gal4 reporter transient transfection assay (LBD-M2H Gal4β); type: cell-based; settings: HEK293 cells, LXRβ LBD; read-out: LBD-M2H Gal4β (EC50 range)
T2 construct: LXRβ (amino acids 156-461); expressed in transfected cells; host or cells: HEK293
T2 sequence (P55055 with tags, fused parts or gaps DUP175-175 limits assumed): T1 sequence (P55055 with tags, fused parts or gaps DUP175-175 limits assumed)
Experimental: (§1) The tested compounds were usually dissolved, tested and stored as 20 mM stock solutions in DMSO. Since sulfonyl acetic acid derivatives tend to decarboxylate under these conditions, these stock solutions were prepared, tested and stored as 20 mM DMSO stock solutions containing 100 mM trifluoroacetic Acid (5 equivalents). Sulfonyl acetic acid derivatives are shelf stable as solid at rt for long time as reported by Griesbrecht et al. (Synlett 2010:374) or Faucher et al. (J. Med. Chem. 2004; 47:18).
(§2) LXR Gal4 Reporter Transient Transfection Assays
(§3) LXRα and LXRβ activity status was determined via detection of interaction with coactivator and corepressor proteins in mammalian two-hybrid experiments (M2H). For this, via transient transfection the full length (FL) proteins of LXRα (amino acids 1-447; NP005684; SEQ ID NO:1) or LXRβ-(amino acids 1-461; NP009052; SEQ ID NO:2) or the ligand-binding domains (LBD) of LXRα (amino acids 155-447 SEQ ID NO:3) or LXRβ (amino acids 156-461; SEQ ID NO:4) were expressed from pCMV-AD (Stratagene) as fusions to the transcriptional activation domain of NFkB. As cofactors, domains of either the steroid receptor coactivator 1 (SRC1; amino acids 552-887; SEQ ID NO:5) or of the corepressor NCoR (amino acids 1906-2312; NP006302; SEQ ID NO:6) were expressed as fusions to the DNA binding domain of the yeast transcription factor GAL4 (from pCMV-BD; Stratagene). Interaction was monitored via activation of a coexpressed Firefly Luciferase Reporter gene under control of a promoter containing repetitive GAL4 response elements (vector pFRLuc; Stratagene). Transfection efficiency was controlled via cotransfection of constitutively active pRL-CMV Renila reniformis luciferase reporter (Promega). HEK293 cells were grown in minimum essential medium (MEM) with 2 mM L-glutamine and Earle's balanced salt solution supplemented with 8.3% fetal bovine serum, 0.1 mM non-essential amino acids, 1 mM sodium pyruvate, at 37° C. in 5% CO2. 3.5×10^4 cells/well were plated in 96-well cell culture plates in growth medium supplemented with 8.3% fetal bovine serum for 16-20 h to ˜90% confluency. For transfection, medium was taken off and LXR and cofactor expressing plasmids as well as the reporter plasmids are added in 30 μL OPTIMEM/well including polyethylene-imine (PEI) as vehicle. Typical amounts of plasmids transfected/well: pCMV-AD-LXR (5 ng), pCMV-BD-cofactor (5 ng), pFR-Luc (100 ng), pRL-CMV (0.5 ng). Compound stocks were prepared in DMSO, prediluted in MEM to a total volume of 120 μL, and added 4 h after addition of the transfection mixture (final vehicle concentration not exceeding 0.2%). Cells were incubated for additional 16 h, lysed for 10 min in 1× Passive Lysis Buffer (Promega) and Firefly and Renilla luciferase activities were measured sequentially in the same cell extract using buffers containing D-luciferine and coelenterazine, respectively. Measurements of luminescence were done in a BMG-luminometer.

[3] = target: T3, ligand-binding domain (LBD) of LXRα (Homo sapiens, UniProt Q13133); assay: LXR Gal4 reporter transient transfection assay (LBD-M2H Gal4α); type: cell-based; settings: HEK293 cells, LXRα LBD; read-out: LBD-M2H Gal4α (EC50 range)
T3 construct: expressed in transfected cells; host or cells: HEK293
T3 sequence (Q13133 155-447): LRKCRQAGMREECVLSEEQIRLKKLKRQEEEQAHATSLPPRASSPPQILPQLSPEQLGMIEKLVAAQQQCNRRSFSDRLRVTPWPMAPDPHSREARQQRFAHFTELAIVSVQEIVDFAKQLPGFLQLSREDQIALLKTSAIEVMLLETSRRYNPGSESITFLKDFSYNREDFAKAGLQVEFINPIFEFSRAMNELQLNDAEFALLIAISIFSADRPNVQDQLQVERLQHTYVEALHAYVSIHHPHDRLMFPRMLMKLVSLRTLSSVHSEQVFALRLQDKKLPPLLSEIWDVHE
Experimental: as §1, §2, §3

Row | SMILES | pEC50 [1] | pEC50 [2] | pEC50 [3]
1 | Cc1ccc(S(=O)(=O)n2c(-c3cccc(C(C)(C)C(=O)O)c3)c(-c3ccsc3C#N)c3ccccc32)cc1 [3/20] | 5.00 to 6.00 | > 7.00 | 6.00 to 7.00
2 | N#Cc1sccc1-c1c(-c2cccc(OCC(=O)O)c2)n(S(=O)(=O)c2ccc(Cl)cc2)c2ccccc12 [3/51] | 5.00 to 6.00 | 6.00 to 7.00 | 6.00 to 7.00
3 | N#Cc1sccc1-c1c(-c2cccs2)n(S(=O)(=O)c2ccc(Cl)cc2)c2cc(O)ccc12 [13/1] | 5.00 to 6.00 | > 7.00 | > 7.00
4 | N#Cc1sccc1-c1c(-c2cccs2)n(S(=O)(=O)c2ccc(Cl)cc2)c2ccc(OCCCC(=O)O)cc12 [15/1] | 5.00 to 6.00 | 6.00 to 7.00 | 6.00 to 7.00
5 | N#Cc1sccc1-c1c(-c2cccs2)n(S(=O)(=O)c2ccc(Cl)cc2)c2ccc(OCCCCC(=O)O)cc12 [15/2] | < 5.00 | 6.00 to 7.00 | 6.00 to 7.00
6 | N#Cc1sccc1-c1c(-c2cccs2)n(S(=O)(=O)c2ccc(Cl)cc2)c2cc(OCCCC(=O)O)ccc12 [15/4] | 5.00 to 6.00 | > 7.00 | 6.00 to 7.00
7 | N#Cc1sccc1-c1c(-c2cccs2)n(S(=O)(=O)c2ccc(Cl)cc2)c2cc(OCCCCC(=O)O)ccc12 [15/5] | 5.00 to 6.00 | > 7.00 | > 7.00
8 | N#Cc1ccncc1-c1c(-c2cccs2)n(S(=O)(=O)c2ccc(Cl)cc2)c2ccccc12 [20/2] | 5.00 to 6.00 | > 7.00 | 6.00 to 7.00
9 | O=S(=O)(c1ccc(Cl)cc1)n1c(-c2cccs2)c(-c2ccsc2C(F)F)c2ccccc21 [20/3] | 6.00 to 7.00 | > 7.00 | > 7.00
10 | N#Cc1cscc1-c1c(-c2cccs2)n(S(=O)(=O)c2ccc(Cl)cc2)c2ccccc12 [20/4] | 5.00 to 6.00 | > 7.00 | > 7.00
11 | CS(=O)(=O)c1ccccc1-c1c(-c2cccs2)n(S(=O)(=O)c2ccc(Cl)cc2)c2ccccc12 [20/5] | 5.00 to 6.00 | 6.00 to 7.00 | 6.00 to 7.00
12 | N#Cc1cc(F)ccc1-c1c(-c2cccs2)n(S(=O)(=O)c2ccc(Cl)cc2)c2ccccc12 [20/6] | 6.00 to 7.00 | > 7.00 | 6.00 to 7.00
13 | N#Cc1nccnc1-c1c(-c2cccs2)n(S(=O)(=O)c2ccc(Cl)cc2)c2ccccc12 [20/7] | 5.00 to 6.00 | > 7.00 | 6.00 to 7.00
14 | N#Cc1sccc1-c1c(-c2cccs2)n(S(=O)(=O)c2ccc(F)cc2)c2ccccc12 [20/11] | 6.00 to 7.00 | > 7.00 | > 7.00
15 | N#Cc1sccc1-c1c(-c2cccs2)n(S(=O)(=O)c2ccc(F)cc2F)c2ccccc12 [20/12] | 5.00 to 6.00 | > 7.00 | > 7.00
16 | N#Cc1sccc1-c1c(-c2cccs2)n(S(=O)(=O)c2ccc(Cl)cc2)c2ccccc12 [20/13] | 6.00 to 7.00 | > 7.00 | > 7.00
17 | COc1ccc(S(=O)(=O)n2c(-c3ccccc3)c(C3=C(C#N)CCCC3)c3ccccc32)cc1 [20/16] | 5.00 to 6.00 | 6.00 to 7.00 | 6.00 to 7.00

Row | SMILES | pEC50 [1] | pEC50 [2] | pEC50 [3]
18 | COc1ccc(S(=O)(=O)n2c(-c3ccccc3)c(C3=C(C#N)c4ccccc4CC3)c3ccccc32)cc1 [20/19] | < 5.00 | 6.00 to 7.00 | 6.00 to 7.00
19 | COc1ccc(S(=O)(=O)n2c(-c3ccccc3)c(-c3ccc4ncccc4c3C#N)c3ccccc32)cc1 [20/20] | 5.00 to 6.00 | 6.00 to 7.00 | 5.00 to 6.00
20 | COc1ccc(S(=O)(=O)n2c(-c3ccccc3)c(-c3ccsc3C)c3ccccc32)cc1 [20/21] | 5.00 to 6.00 | > 7.00 | 6.00 to 7.00
21 | COc1ccc(S(=O)(=O)n2c(-c3ccccc3)c(-c3ccsc3OC)c3ccccc32)cc1 [20/22] | 6.00 to 7.00 | 6.00 to 7.00 | 6.00 to 7.00
22 | COc1ccc(S(=O)(=O)n2c(-c3ccccc3)c(-c3cc(C)sc3C#N)c3ccccc32)cc1 [20/23] | 5.00 to 6.00 | 6.00 to 7.00 | 6.00 to 7.00
23 | N#Cc1ccc(OCC(=O)O)cc1-c1c(-c2cccs2)n(S(=O)(=O)c2ccc(Cl)cc2)c2ccccc12 [21/1] | 5.00 to 6.00 | 5.00 to 6.00 | 5.00 to 6.00
24 | N#Cc1c(OCC(=O)O)cccc1-c1c(-c2cccs2)n(S(=O)(=O)c2ccc(Cl)cc2)c2ccccc12 [21/2] | 5.00 to 6.00 | 5.00 to 6.00 | 5.00 to 6.00
25 | N#Cc1sccc1-c1c(-c2ccc(F)cc2)n(S(=O)(=O)c2ccc(Cl)cc2)c2ccccc12 [26/1] | 5.00 to 6.00 | > 7.00 | 6.00 to 7.00
26 | Cc1ccc(S(=O)(=O)n2c(-c3cccc(-c4cccc(C(=O)O)c4)c3)c(-c3ccsc3C#N)c3ccccc32)cc1 [30/1] | 6.00 to 7.00 | > 7.00 | 6.00 to 7.00
27 | Cc1ccc(S(=O)(=O)n2c(-c3cccc(-c4cccc(C(C)(C)C(=O)O)c4)c3)c(-c3ccsc3C#N)c3ccccc32)cc1 [30/2] | 5.00 to 6.00 | 6.00 to 7.00 | 6.00 to 7.00
28 | N#Cc1sccc1-c1c(-c2cccc(CCCC(=O)O)c2)n(S(=O)(=O)c2ccc(Cl)cc2)c2ccccc12 [30/5] | 5.00 to 6.00 | > 7.00 | 6.00 to 7.00
29 | N#Cc1sccc1-c1c(-c2cccc(N3CC(C(=O)O)C3)n2)n(S(=O)(=O)c2ccc(Cl)cc2)c2ccccc12 [30/6] | 5.00 to 6.00 | 6.00 to 7.00 | 6.00 to 7.00
30 | N#Cc1sccc1-c1c(-c2ccc(C3CC3C(=O)O)s2)n(S(=O)(=O)c2ccc(Cl)cc2)c2ccccc12 (stereo not drawn) [30/8] | 5.00 to 6.00 | 6.00 to 7.00 | 6.00 to 7.00
31 | N#Cc1sccc1-c1c(-c2cc(Cl)cc(C3CC3C(=O)O)c2)n(S(=O)(=O)c2ccc(Cl)cc2)c2ccccc12 (stereo not drawn) [30/9] | 5.00 to 6.00 | > 7.00 | 6.00 to 7.00
32 | N#Cc1sccc1-c1c(-c2cccc(N3CCC(C(=O)O)C3)c2)n(S(=O)(=O)c2ccc(Cl)cc2)c2ccccc12 (stereo not drawn) [30/11] | 6.00 to 7.00 | > 7.00 | 6.00 to 7.00
33 | N#Cc1sccc1-c1c(-c2cccc(C3CC3C(=O)O)c2)n(S(=O)(=O)C2CC2)c2ccccc12 (stereo not drawn) [30/12] | 5.00 to 6.00 | 6.00 to 7.00 | 5.00 to 6.00
34 | Cc1ccc(S(=O)(=O)n2c(-c3cccc(C4CC4C(=O)O)c3)c(-c3ccsc3F)c3ccccc32)cc1 (stereo not drawn) [30/14] | 5.00 to 6.00 | 6.00 to 7.00 | 6.00 to 7.00
